# Measured values from patent US20150197497A1, “SELECTIVE INHIBITORS OF HISTONE DEACETYLASE ISOFORM 6 AND METHODS THEREOF” (DANA-FARBER CANCER INSTITUTE, INC., priority 2011, published 2015).
# Legend:
# HDAC5 = molecular target: T1, HDAC5 (Homo sapiens, UniProt Q9UQL6); assay: In vitro HDAC enzyme inhibition assay, HDAC5; type: biochemical; details: for HDAC5/HDAC6 in vitro selectivity: ratio of IC50 for HDAC5 relative to that of HDAC6; for IC50: recombinant full-length HDAC5, substrate MAZ1675 40 μM; for selectivity toward HDAC6 compared to HDAC5 (in words): tested in vitro
# T1 construct: Recombinant, full-length HDAC protein (BPS Biosciences) was incubated with fluorophore conjugated substrate; purchased BPS Biosciences
# Description: (§1) In vitro Histone Deacetylase enzyme assays were performed using Class I (isoforms: HDAC1, HDAC2, HDAC3 and HDAC8), class IIa (isoforms: HDAC4, HDAC5, HDAC7 and HDAC9) and class IIb (isoform HDAC6).
# (§2) HDAC activities were determined in vitro with an optimized homogenous assay performed in a 384-well plate. Recombinant, full-length HDAC protein (BPS Biosciences) was incubated with fluorophore conjugated substrate, MAZ1600 and MAZ1675, at Km=[S]. […] Reactions were performed in assay buffer (50 mM HEPES, 100 mM KCl, 0.001% Tween-20, 0.05% BSA, 200 μM tris(2-carboxyethyl)phosphine (TCEP), pH 7.4) and followed for fluorogenic release of 7-amino-4-methylcoumarin from substrate upon deacetylase and trypsin enzymatic activity. Fluorescence measurements were obtained every five minutes using a multilabel plate reader and plate-stacker (Envision; Perkin-Elmer). Each plate was analyzed by plate repeat, and the first derivative within the linear range was imported into analytical software (Spotfire DecisionSite and GraphPad Prism). Replicate experimental data from incubations with inhibitor were normalized to controls.
# HDAC6 = molecular target: T2, HDAC6 (Homo sapiens, UniProt Q9UBN7); assay: In vitro HDAC enzyme inhibition assay, HDAC6; type: biochemical; details: recombinant full-length HDAC6, substrate MAZ1600 9 μM
# T2 construct: Recombinant, full-length HDAC protein (BPS Biosciences) was incubated with fluorophore conjugated substrate; purchased BPS Biosciences
# T2 sequence (Q9UBN7 1-1215): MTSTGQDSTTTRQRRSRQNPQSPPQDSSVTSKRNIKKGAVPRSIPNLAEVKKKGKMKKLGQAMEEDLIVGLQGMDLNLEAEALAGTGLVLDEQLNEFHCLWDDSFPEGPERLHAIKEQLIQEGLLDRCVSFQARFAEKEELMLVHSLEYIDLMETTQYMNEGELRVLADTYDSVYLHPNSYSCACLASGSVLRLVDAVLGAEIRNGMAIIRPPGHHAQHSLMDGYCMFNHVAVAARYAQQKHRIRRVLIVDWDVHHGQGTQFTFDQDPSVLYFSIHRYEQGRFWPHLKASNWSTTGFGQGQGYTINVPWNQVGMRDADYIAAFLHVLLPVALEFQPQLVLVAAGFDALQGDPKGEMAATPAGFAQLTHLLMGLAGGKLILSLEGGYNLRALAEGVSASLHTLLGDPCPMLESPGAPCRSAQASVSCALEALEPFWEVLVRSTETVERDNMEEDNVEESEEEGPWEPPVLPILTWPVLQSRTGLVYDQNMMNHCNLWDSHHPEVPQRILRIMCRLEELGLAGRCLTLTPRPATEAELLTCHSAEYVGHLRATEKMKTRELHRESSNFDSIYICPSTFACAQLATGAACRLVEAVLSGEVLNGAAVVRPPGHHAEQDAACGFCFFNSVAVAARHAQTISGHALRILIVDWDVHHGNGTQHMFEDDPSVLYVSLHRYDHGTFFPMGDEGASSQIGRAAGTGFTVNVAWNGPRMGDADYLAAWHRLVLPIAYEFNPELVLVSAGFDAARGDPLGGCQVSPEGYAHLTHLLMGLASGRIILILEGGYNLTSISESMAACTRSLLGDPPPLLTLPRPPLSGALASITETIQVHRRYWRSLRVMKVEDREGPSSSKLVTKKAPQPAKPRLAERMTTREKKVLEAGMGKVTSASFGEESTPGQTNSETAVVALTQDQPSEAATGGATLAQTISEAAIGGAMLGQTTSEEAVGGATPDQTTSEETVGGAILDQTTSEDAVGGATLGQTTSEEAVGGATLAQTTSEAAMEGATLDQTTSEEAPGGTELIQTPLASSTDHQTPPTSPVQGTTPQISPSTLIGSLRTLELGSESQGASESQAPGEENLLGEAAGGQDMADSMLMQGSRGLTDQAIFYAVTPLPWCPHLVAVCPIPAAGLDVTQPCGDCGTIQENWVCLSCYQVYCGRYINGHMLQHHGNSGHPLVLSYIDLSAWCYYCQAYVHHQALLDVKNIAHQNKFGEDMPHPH
# Description: as §1, §2
# acetylated histones = assay: High-content image analysis of induction of acetylated histones in A549 cells; details: for EC50: Homo sapiens, A549, 8 h, read-out: EC50 for half-maximal induction of acetylated histones (AcHistone)
# Description: Cells were treated with each test HDACi compound with an automated pin transfer instrument (Janus, Perkin Elmer) and incubated for 8 hours. […] Fixation solution was aspirated and 90 μL of washing solution (0.1% Triton X-100 in PBS) was added prior to 10 minute incubation at 4° C. Washing solution was aspirated and cells were incubated at 4° C. for about 1 hour in blocking solution (0.1% Triton X-100+2% BSA in PBS). Washing solution was aspirated, and cells were incubated for about 1 hour at 4° C. in primary antibody for acetylated-tubulin (Sigma T7451) and acetylated-histone (Cell Signaling #9441L) at a 1:1000 dilution in blocking solution. Primary antibody solution was aspirated, and cells were washed three times in 90 μL of washing solution. […] Secondary antibody and nuclear staining solution was aspirated and cells were washed three times in 90 μL of washing solution. After the third wash, 50 μL of PBS was added to each well. Image acquisition was done on a high content imaging microscope (ImageXpress Micro, Molecular Devices), and image analysis (MetaXpress, Molecular Devices) was performed to obtain average acetylated-tubulin and acetylated-histone signal per cell based on treatment. Replicate experimental data from incubations with inhibitor were normalized to DMSO controls.
# HDAC9 = molecular target: T3, HDAC9 (Homo sapiens, UniProt Q9UKV0); assay: In vitro HDAC enzyme inhibition assay, HDAC9; type: biochemical; details: for HDAC9/HDAC6 in vitro selectivity: ratio of IC50 for HDAC9 relative to that of HDAC6; for IC50: recombinant full-length HDAC9, substrate MAZ1675 26 μM; for selectivity toward HDAC6 compared to HDAC9 (in words): tested in vitro
# T3 construct: Recombinant, full-length HDAC protein (BPS Biosciences) was incubated with fluorophore conjugated substrate; purchased BPS Biosciences
# Description: as §1, §2
# HDAC7 = molecular target: T4, HDAC7 (Homo sapiens, UniProt Q8WUI4); assay: In vitro HDAC enzyme inhibition assay, HDAC7; type: biochemical; details: for HDAC7/HDAC6 in vitro selectivity: ratio of IC50 for HDAC7 relative to that of HDAC6; for IC50: recombinant full-length HDAC7, substrate MAZ1675 22 μM
# T4 construct: Recombinant, full-length HDAC protein (BPS Biosciences) was incubated with fluorophore conjugated substrate; purchased BPS Biosciences
# T4 sequence (Q8WUI4 1-952): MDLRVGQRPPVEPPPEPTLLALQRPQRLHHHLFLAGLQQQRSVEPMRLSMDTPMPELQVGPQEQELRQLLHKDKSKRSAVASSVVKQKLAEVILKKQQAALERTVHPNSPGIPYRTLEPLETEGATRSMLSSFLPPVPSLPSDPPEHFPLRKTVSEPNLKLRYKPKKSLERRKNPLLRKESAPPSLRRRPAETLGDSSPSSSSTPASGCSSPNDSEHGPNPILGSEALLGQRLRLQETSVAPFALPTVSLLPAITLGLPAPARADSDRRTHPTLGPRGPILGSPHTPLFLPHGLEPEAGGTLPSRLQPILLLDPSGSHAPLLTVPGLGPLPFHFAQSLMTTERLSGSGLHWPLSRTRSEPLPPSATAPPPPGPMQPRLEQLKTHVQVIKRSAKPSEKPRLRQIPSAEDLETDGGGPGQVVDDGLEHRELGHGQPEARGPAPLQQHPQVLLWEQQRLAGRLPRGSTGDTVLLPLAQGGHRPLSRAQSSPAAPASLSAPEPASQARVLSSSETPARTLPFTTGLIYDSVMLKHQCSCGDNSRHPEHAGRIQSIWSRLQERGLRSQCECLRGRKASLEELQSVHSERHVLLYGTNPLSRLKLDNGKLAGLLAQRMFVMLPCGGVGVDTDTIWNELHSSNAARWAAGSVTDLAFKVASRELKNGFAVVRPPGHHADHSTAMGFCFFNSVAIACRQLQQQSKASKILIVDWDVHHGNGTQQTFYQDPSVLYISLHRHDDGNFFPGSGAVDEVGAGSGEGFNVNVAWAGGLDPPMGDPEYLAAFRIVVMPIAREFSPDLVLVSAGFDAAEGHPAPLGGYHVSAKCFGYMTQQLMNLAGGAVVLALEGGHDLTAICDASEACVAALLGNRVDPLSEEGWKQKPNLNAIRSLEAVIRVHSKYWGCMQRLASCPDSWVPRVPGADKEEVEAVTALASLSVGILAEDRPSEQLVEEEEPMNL
# Description: as §1, §2
# T3 sequence (Q9UKV0 whole entry): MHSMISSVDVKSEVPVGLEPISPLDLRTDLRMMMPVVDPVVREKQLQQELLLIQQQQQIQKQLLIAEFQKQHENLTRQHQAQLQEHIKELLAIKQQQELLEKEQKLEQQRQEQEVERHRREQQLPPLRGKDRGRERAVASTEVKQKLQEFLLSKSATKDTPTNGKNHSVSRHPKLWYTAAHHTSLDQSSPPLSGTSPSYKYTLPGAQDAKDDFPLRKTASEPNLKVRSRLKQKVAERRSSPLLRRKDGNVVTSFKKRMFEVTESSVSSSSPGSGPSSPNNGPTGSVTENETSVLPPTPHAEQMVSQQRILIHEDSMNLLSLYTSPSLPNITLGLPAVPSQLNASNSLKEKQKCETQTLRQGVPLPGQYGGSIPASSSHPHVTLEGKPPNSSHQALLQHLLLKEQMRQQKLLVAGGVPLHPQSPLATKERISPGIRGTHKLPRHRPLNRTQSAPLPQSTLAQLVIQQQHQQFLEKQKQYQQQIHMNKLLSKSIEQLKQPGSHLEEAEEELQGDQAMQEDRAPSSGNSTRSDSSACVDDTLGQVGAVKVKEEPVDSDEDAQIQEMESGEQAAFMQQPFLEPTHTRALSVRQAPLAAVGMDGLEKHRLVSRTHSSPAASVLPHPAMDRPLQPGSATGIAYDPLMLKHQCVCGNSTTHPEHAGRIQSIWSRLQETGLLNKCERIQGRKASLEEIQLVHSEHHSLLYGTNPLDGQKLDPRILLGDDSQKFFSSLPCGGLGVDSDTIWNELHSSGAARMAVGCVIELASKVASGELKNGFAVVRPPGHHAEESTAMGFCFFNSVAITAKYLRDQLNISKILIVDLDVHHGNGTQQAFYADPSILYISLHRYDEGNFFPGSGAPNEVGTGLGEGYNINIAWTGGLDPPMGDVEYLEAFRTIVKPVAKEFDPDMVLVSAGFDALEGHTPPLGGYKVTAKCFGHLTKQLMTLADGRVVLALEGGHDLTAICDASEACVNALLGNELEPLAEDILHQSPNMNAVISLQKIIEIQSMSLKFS
# T1 sequence (Q9UQL6 whole entry): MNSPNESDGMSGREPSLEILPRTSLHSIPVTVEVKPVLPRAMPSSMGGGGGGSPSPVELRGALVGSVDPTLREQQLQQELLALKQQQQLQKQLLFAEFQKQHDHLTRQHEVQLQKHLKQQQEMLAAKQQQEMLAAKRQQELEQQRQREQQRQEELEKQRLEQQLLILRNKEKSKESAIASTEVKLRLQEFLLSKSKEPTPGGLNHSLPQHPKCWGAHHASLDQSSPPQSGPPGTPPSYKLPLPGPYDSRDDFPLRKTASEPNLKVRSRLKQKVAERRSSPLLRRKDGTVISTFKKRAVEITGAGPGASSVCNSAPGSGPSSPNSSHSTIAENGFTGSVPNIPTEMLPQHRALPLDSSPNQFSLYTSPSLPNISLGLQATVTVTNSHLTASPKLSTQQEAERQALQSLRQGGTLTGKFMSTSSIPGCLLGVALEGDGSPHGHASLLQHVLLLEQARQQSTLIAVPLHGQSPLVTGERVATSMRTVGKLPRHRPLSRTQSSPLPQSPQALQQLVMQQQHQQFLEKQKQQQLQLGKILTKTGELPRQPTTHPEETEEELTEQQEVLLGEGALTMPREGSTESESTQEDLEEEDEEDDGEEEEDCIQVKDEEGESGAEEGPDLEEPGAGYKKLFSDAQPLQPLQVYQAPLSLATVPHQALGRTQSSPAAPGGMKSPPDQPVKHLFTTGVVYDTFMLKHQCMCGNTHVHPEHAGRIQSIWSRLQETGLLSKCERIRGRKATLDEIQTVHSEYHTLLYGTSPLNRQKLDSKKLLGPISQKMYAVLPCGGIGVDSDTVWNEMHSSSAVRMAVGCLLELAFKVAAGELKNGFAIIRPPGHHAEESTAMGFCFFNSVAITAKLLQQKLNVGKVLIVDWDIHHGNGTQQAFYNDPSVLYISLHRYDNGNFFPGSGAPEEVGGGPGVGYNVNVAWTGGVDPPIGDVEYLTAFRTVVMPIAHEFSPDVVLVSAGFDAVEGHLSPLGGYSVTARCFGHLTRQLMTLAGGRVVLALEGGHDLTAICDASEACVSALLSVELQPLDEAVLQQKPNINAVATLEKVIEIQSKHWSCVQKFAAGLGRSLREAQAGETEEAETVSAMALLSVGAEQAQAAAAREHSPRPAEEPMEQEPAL
HDAC5/HDAC6 in vitro selectivity (HDAC5),IC50 (HDAC5) [nM],IC50 (HDAC6) [nM],EC50 (acetylated histones) [nM],HDAC9/HDAC6 in vitro selectivity (HDAC9),IC50 (HDAC9) [nM],HDAC7/HDAC6 in vitro selectivity (HDAC7),IC50 (HDAC7) [nM],SMILES,selectivity toward HDAC6 compared to HDAC9 (in words) (HDAC9),selectivity toward HDAC6 compared to HDAC5 (in words) (HDAC5),"levels of acetylated histone, dose response (in words) (acetylated histones; A549 cells, FIG. 11)"
476,148,0.31,1930,2420,750,735,228,"O=C(NO)c1ccc(Cn2c(C(F)(F)F)nc3cc(Br)ccc32)cc1 [A5, 4-((5-bromo-2-(trifluoromethyl)-1H-benzo[d]imidazol-l-yl)methyl)-N-hydroxybenzamide]",,,
3687,1400,0.381,79.5,5975,2280,1098,418,"Cc1ccc2c(c1)ncn2Cc1ccc(C(=O)NO)cc1 [A8, N-hydroxy-4-((5-methyl-1H-benzo[d]imidazol-1-yl)methyl)benzamide]",,,
537,164,0.306,242,1942,594,348,106,"Cc1ccc2c(c1)nc(C(F)(F)F)n2Cc1ccc(C(=O)NO)cc1 [A2, N-hydroxy-4-((5-methyl-2-(trifluoromethyl)-1H-benzo[d]imidazol-1-yl)methyl)benzamide]",,,
15350,1020,0.0663,62.7,32978,2190,4925,327,"O=C(NO)c1ccc(Cn2cnc3cc(F)ccc32)cc1 [A9, 4-((5-fluoro-1H-benzo[d]imidazol-1-yl)methyl)-N-hydroxybenzamide]","exceptionally high selectivity (Inhibitors with in vitro selectivity values for HDAC6 of at least 30,000 are considered to have exceptionally high selectivity toward HDAC6)",,
9794,958,0.0979,232,16631,1630,2606,255,O=C(NO)c1ccc(Cn2cnc3ccccc32)cc1 [A7],,,
7819,1700,0.217,105,10933,2370,4070,883,"COc1ccc2c(c1)ncn2Cc1ccc(C(=O)NO)cc1 [A12, N-hydroxy-4-((5-methoxy-1H-benzo[d]imidazol-1-yl)methyl)benzamide]",,,
26352,1460,0.0552,6040,26037,1440,7608,420,"O=C(NO)c1ccc(Cn2nnc3cc(Cl)ccc32)cc1 [C4, 4-((5-chloro-1H-benzo[d][1,2,3]triazol-1-yl)methyl)-N-hydroxybenzamide]",,,
48751,1260,0.0258,2300,42107,1090,11817,305,"O=C(NO)c1ccc(Cn2nnc3cc(Br)ccc32)cc1 [C5, 4-((5-bromo-1H-benzo[d][1,2,3]triazol-1-yl)methyl)-N-hydroxybenzamide]","exceptionally high selectivity (Inhibitors with in vitro selectivity values for HDAC6 of at least 30,000 are considered to have exceptionally high selectivity toward HDAC6)","exceptionally high selectivity (Inhibitors with in vitro selectivity values for HDAC6 of at least 30,000 are considered to have exceptionally high selectivity toward HDAC6)",
57925,1490,0.0257,1540,47920,1230,15934,410,"COc1ccc2c(c1)[nH]c(=O)n2Cc1ccc(C(=O)NO)cc1 [B7, N-hydroxy-4-((5-methoxy-2-oxo-2,3-dihydro-1H-benzo[d]imidazol-1-yl)methyl)benzamide]","exceptionally high selectivity (Inhibitors with in vitro selectivity values for HDAC6 of at least 30,000 are considered to have exceptionally high selectivity toward HDAC6)","exceptionally high selectivity (Inhibitors with in vitro selectivity values for HDAC6 of at least 30,000 are considered to have exceptionally high selectivity toward HDAC6)",
953,450,0.472,6340,2167,1020,255,121,"O=C(NO)c1ccc(Cn2c(C(F)(F)F)nc3ccccc32)cc1 [A1, N-hydroxy-4-((2-(trifluoromethyl)-1H-benzo[d]imidazol-1-yl)methyl)benzamide]",,,absence of the dose-dependent response
